Experimental findings from patent US11795171B2, “Pyrrolotriazinones and imidazotriazinones as ubiquitin-specific protease 7 inhibitors” (Valo Health, Inc., priority 2014, dated 2023) are described below.

Where only a bound is given, the exact number is not on record here.

Sequence of USP7 (Q93009 208-1102): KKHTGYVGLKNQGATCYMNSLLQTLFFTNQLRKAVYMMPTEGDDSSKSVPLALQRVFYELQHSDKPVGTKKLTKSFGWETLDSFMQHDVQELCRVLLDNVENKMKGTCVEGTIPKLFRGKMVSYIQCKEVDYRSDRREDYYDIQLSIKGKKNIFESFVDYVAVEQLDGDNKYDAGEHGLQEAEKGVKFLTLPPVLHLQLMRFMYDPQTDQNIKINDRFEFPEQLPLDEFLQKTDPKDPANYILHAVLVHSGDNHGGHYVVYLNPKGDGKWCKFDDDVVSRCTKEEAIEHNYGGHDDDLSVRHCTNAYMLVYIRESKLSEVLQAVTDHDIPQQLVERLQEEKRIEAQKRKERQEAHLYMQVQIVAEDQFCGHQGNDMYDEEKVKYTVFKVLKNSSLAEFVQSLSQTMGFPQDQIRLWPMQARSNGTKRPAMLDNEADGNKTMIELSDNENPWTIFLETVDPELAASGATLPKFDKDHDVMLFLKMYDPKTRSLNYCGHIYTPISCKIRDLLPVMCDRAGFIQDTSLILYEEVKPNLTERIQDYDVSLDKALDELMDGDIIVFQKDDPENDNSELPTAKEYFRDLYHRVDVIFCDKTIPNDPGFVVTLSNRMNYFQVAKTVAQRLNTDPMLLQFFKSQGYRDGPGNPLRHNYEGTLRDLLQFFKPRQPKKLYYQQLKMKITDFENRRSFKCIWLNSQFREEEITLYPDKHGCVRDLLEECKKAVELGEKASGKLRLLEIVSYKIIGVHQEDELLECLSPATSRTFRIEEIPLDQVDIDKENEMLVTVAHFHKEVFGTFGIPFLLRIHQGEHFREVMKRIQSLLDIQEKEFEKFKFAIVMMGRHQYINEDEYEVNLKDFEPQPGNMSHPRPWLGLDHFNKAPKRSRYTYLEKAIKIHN

The assay concerns the target USP7 (Homo sapiens (Human), UniProt Q93009). Kind of assay: USP7 Assay B (Ubitquin-Rhodamine110 Assay). Particulars: Ub-Rh110 substrate 25 nM. The format is biochemical. The method, then: Stock compound solutions were stored at −20° C. as 10 mM in DMSO. […] Prestamped assay plates were allowed to come to room temperature on the day of the assay. For the screen, 100 nL of 2 mM was pre-dispensed for a final screening concentration of 10 μM (DMSO(fc)=0.5%). […] Unless otherwise indicated, all follow-up assays were run on triplecate plates. […] Pre-stamped with compounds were either not preincubated or preincubated with USP7 between 30 to 120 minutes prior to the addition of 10 μL of 2×Ub-Rh110 to compound plates. Plates were incubated stacked for either 23 or 45 minutes at room temperature before fluorescence was read on the Envision (Excitation at 485 nm and Emission at 535 nm; Perkin Elmer) or on the PheraSTAR (Excitation at 485 nm and Emission at 535 nm; BMG Labtech).
Data from USP7 Assays A and B were reported as percent inhibition (inh) compared with control wells based on the following equation: % inh=1−((FLU−AveLow)/(AveHigh−AveLow)) where FLU=measured Fluorescence (See Tables 2 and 3). AveLow=average Fluorescence of no enzyme control (n=16). AveHigh=average Fluorescence of DMSO control (n=16). IC50 values were determined by curve fitting of the standard 4 parameter logistic fitting algorithm included in the Activity Base software package: IDBS XE Designer Model205. Data is fitted using the Levenburg Marquardt algorithm.
Turning to `O=C(c1ccc(-c2cscn2)cc1)N1CCC(O)(Cn2cnn3cccc3c2=O)CC1` [Compound I-59, 3-((4-hydroxy-1-(4-(thiazol-4-yl)benzoyl)piperidin-4-yl)methyl)pyrrolo[2,1-f][1,2,4]triazin-4(3H)-one], the IC50 was > 10 µM.

Regarding `CCN(c1ccccc1)c1ccc(C(=O)N2CCC(O)(Cn3cnn4cccc4c3=O)CC2)cc1` [Compound I-72, 3-((1-(4-(ethyl(phenyl)amino)benzoyl)-4-hydroxypiperidin-4-yl)methyl)pyrrolo[2,1-f][1,2,4]triazin-4(3H)-one], the IC50 was in the range of 1 to 10 µM.

Consider `N#Cc1ccccc1-c1cccc(C(=O)N2CCC(O)(Cn3cnn4cccc4c3=O)CC2)c1` [Compound I-18, 3′-(4-hydroxy-4-((4-oxopyrrolo[2,1-f][1,2,4]triazin-3(4H)-yl)methyl)piperidine-1-carbonyl)-[1,1′-biphenyl]-2-carbonitrile], for which the IC50 is > 10 µM. In the case of `O=C(c1ccc(Oc2ccccc2)cc1)N1CCC(O)(Cn2cnn3cccc3c2=O)CC1` [Compound I-80, 3-((4-hydroxy-1-(4-phenoxybenzoyl)piperidin-4-yl)methyl)pyrrolo[2,1-f][1,2,4]triazin-4(3H)-one], the IC50 is > 10 µM. The figure for “3-((4-hydroxy-1-(3-phenylbutanoyl)piperidin-4-yl)methyl)-6-methylpyrrolo[2,1-f][1,2,4]triazin-4(3H)-one [Compound I-83]” is 1 to 10 µM. Take `Cc1ccc2[nH]ncc2c1-c1cccc(C(=O)N2CCC(O)(Cn3cnn4cccc4c3=O)CC2)c1` [Compound I-24, 3-((4-hydroxy-1-(3-(5-methyl-1H-indazol-4-yl)benzoyl)piperidin-4-yl)methyl)pyrrolo[2,1-f][1,2,4]triazin-4(3H)-one]: the IC50 was 1 to 10 µM.

Turning to “3-((1-(3-(1H-pyrazol-1-yl)butanoyl)-4-hydroxypiperidin-4-yl)methyl)pyrrolo[2,1-f][1,2,4]triazin-4(3H)-one [Compound I-34]”, the half-maximal inhibitory concentration (IC50) was > 10 µM.

Turning to `Cc1c(F)cccc1NC(=O)Nc1cc2c(=O)n(CC3(O)CCN(C(=O)C4CC4)CC3)cnn2c1` [Compound I-97, 1-(3-((1-(cyclopropanecarbonyl)-4-hydroxypiperidin-4-yl)methyl)-4-oxo-3,4-dihydropyrrolo[2,1-f][1,2,4]triazin-6-yl)-3-(3-fluoro-2-methylphenyl)urea], the IC50 is > 10 µM. For `O=C(c1ccc(CN2CCCCC2)cc1Cl)N1CCC(O)(Cn2cnn3cccc3c2=O)CC1` [Compound I-75, 3-((1-(2-chloro-4-(piperidin-1-ylmethyl)benzoyl)-4-hydroxypiperidin-4-yl)methyl)pyrrolo[2,1-f][1,2,4]triazin-4(3H)-one] the value was > 10 µM; for `O=C(c1cccc(-c2ccc3nccn3c2)c1)N1CCC(O)(Cn2cnn3cccc3c2=O)CC1` [Compound I-22, 3-((4-hydroxy-1-(3-(imidazo[1,2-a]pyridin-6-yl)benzoyl)piperidin-4-yl)methyl)pyrrolo[2,1-f][1,2,4]triazin-4(3H)-one], > 10 µM. For `O=C(c1ccc(S(=O)(=O)c2ccccc2)cc1)N1CCC(O)(Cn2cnn3cccc3c2=O)CC1` [Compound I-61, 3-((4-hydroxy-1-(4-(phenylsulfonyl)benzoyl)piperidin-4-yl)methyl)pyrrolo[2,1-f][1,2,4]triazin-4(3H)-one] the value was 1 to 10 µM. For `CCC(Cc1ccccc1)C(=O)N1CCC(O)(Cn2cnn3cccc3c2=O)CC1` (stereo not shown) [Compound I-60, 3-((1-(2-benzylbutanoyl)-4-hydroxypiperidin-4-yl)methyl)pyrrolo[2,1-f][1,2,4]triazin-4(3H)-one] the value was 1 to 10 µM. In turn, `Cc1ccc2cc(-c3ccc(C(=O)N4CCC(O)(Cn5cnn6cccc6c5=O)CC4)cc3)ccc2n1` [Compound I-45, 3-((4-hydroxy-1-(4-(2-methylquinolin-6-yl)benzoyl)piperidin-4-yl)methyl)pyrrolo[2,1-f][1,2,4]triazin-4(3H)-one] returned an IC50 of 1 to 10 µM.
